For orientation: IC50 means the concentration that gives 50% inhibition.

Experiment [1] deals with T1, PTGER2 (EP2) (Homo sapiens, UniProt P43116).
T1 construct: host or cells: HEK 293 (PathHunter PTGER2 b-arrestin cell line)
The experiment is described as follows: hEP2 b-arrestin assay (PathHunter HEK 293 PTGER2 b-arrestin cells). In kind it is cell-based. Conditions: antagonistic activity, beta-arrestin assay; read-out: hEP2 b-arr IC50. A digest of the protocol:
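Antagonism measured as inhibition of PGE2-driven β-arrestin 2 recruitment (enzyme fragment complementation, luminescence) in engineered HEK293 EP2 cells. Agonist: 5 μM PGE2, ~EC80, 120 min at 37 °C after 15 min compound preincubation; test range 10 μM-2 nM or 1 μM-0.2 nM, duplicates, IC50 fitted.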

Experiment [2] has as its target T2, PTGER4 (EP4) (Homo sapiens, UniProt P35408).
T2 construct: host or cells: HEK 293 (PathHunter PTGER4 b-arrestin cell line)
The experiment is described as follows: hEP4 b-arrestin assay (PathHunter HEK 293 PTGER4 b-arrestin cells). Conditions: antagonistic activity, beta-arrestin assay; read-out: hEP4 b-arr IC50. In kind it is cell-based. A digest of the protocol: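 β-Arrestin recruitment to EP4 was read as enzyme-fragment-complementation chemiluminescence in stably transfected HEK 293 cells. After 15 min compound preincubation at 37 °C (ranges 10 μM–2 nM or 1 μM–0.2 nM), cells were stimulated 120 min with PGE2 at 20 nM, its EC80. IC50 values were fitted from duplicates, with repeat measurements averaged.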

SMILES strings stand for the structures.

T2 sequence (P35408 whole entry): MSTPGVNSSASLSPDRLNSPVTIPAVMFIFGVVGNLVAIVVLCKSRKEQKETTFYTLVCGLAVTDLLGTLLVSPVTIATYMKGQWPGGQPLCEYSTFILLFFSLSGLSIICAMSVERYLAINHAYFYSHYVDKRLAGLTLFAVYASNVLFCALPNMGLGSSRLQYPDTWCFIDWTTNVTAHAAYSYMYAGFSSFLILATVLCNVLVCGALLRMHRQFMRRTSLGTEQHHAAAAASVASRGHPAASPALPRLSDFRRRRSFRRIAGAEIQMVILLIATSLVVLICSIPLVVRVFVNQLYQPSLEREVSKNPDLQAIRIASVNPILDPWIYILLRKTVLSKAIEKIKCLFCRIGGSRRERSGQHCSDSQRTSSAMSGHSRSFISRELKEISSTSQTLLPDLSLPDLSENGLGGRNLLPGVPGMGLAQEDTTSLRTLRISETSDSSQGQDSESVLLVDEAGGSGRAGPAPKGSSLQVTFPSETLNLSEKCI
T1 sequence (P43116 whole entry): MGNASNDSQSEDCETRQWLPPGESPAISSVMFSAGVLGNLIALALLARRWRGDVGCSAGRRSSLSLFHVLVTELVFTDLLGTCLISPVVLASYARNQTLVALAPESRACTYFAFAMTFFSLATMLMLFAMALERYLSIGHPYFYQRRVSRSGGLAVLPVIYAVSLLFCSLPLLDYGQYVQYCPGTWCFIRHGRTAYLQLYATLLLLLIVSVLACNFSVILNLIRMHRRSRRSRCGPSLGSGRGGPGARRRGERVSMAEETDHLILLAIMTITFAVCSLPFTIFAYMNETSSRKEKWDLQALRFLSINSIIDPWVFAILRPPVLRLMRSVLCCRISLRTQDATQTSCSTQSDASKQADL

For `CCOc1cc(-c2cc(NCCc3c(C)sc4c(C)cc(F)cc34)ncn2)ccc1-c1cc(O)no1` [Example 202, 5-(2-Ethoxy-4-{6-[2-(5-fluoro-2,7-dimethyl-benzo[b]thiophen-3-yl)-ethylamino]-pyrimidin-4-yl}-phenyl)-isoxazol-3-ol [tautomeric form: 5-(2-ethoxy-4-(6-((2-(5-fluoro-2,7-dimethylbenzo[b]thiophen-3-yl)ethyl)amino)pyrimidin-4-yl)phenyl)isoxazol-3(2H)-one]], the IC50 in experiment [1] amounted to 17 nM; in experiment [2] it was 100 nM.

(Values after US11325899B2, “Benzofurane and benzothiophene derivatives as PGE2 receptor modulators” (IDORSIA PHARMACEUTICALS LTD, priority 2017, dated 2022).)
